According to US12042478B2, “(R)-2-[(2H-1,3-benzodioxol-5-yl)methyl]pyrrolidine and processes for preparation, compositions and uses thereof” (Pharmala Biotech Inc., priority 2022, dated 2024):

Key:
C57 and BTBR mice [1] = assay: Tail cuff blood pressure monitoring (CODA non-invasive system); type: in vivo, mouse; settings: for toxicity (blood pressure) relative to racemic MDMA: IP
Procedure: The 8 chamber CODA™ Non-invasive blood pressure system was set up to monitor the blood pressure of C57 and BTBR mice. Mice were habituated to restraint, saline injection (IP), and tail-cuff pressure monitoring for at least three days before drug administration. Across days, groups of habituated mice were injected IP with increasing doses of test drug, in this case (R)-I, (S)-I and (R/S)-I, then returned to the home cage for 30 min. Tail cuff pressure monitoring then determined effects on systolic, diastolic, and mean arterial pressure in restrained C57 and BTBR mice in sessions lasting ˜30 min.
In the tail cuff pressure monitoring, an occlusion tail cuff was inflated to impede the blood flow to the tail. The cuff was deflated slowly, and a second tail cuff, incorporating the VPR sensor, measured the physiological characteristics of the returning blood flow. As the blood returned to the tail, the VPR sensor cuff measured the tail swelling resulting from arterial blood flow pulsations. Systolic blood pressure was automatically measured at the first appearance of tail swelling. Diastolic blood pressure was automatically measured when the increasing rate of swelling ceased in the tail.

C57 and BTBR mice [2] = assay: Social preference procedure: sociability test; type: in vivo, mouse; settings: 1 mg/kg IP
Procedure: All drugs were dissolved in physiological 0.9% saline and administered at a constant volume of 1 ml/100 g body weight. Because all drugs utilized in these studies were synthesized as hydrochloride (HCl) salts, they were weighed as salts prior to the preparation of all solutions. All drugs at all concentrations are readily dissolved in an aqueous solution at normal pH. Injections of all drugs were administered intraperitoneally (IP) to mimic pharmacokinetic parameters typical of oral administration, without the behaviour-impairing effects of gavage stress.
This assay was conducted in adult male C57 and BTBR mice (n=6 per group) in a dedicated conditioning room where ambient light, sound, and human contact were tightly controlled.
Social preference chambers consisted of two polycarbonate boxes (13.5 cm wide×22.5 cm tall×31.0 cm deep), floored with rough-textured black ABS plastic, and connected to one another by a 1.25″ PVC T-junction. An infrared photobeam emitter/detector array was mounted at each intersection of the T-junction and each preference compartment, and as a mouse traversed the apparatus, it would break the photobeam upon entry to or exit from each preference compartment. Beam breaks started or stopped a counter on an interfaced computer, allowing automated collection of time spent in each compartment. At the end of each test, data were reported as time (in seconds) spent in each compartment, the number of entries into each compartment, and the average time spent in each compartment following an entry. Social preference tests were conducted in an iterative manner, with each test subject completing four distinct phases as described below. Between testing sessions, chambers were sanitized by wiping the insides with a disinfectant product provided by the UAMS Department of Laboratory Animal Medicine. At the end of the week (upon completion of all phases of the procedure), each apparatus was disassembled and all parts were sanitized. No food or water were available during social preference sessions, but were available in the home cage immediately afterwards.
A single sociability session occurred the day after the novelty preference test, where one compartment contained a wire mesh cup with a dummy mouse inside while the other compartment contained a male NIH Swiss stranger mouse inside the previously empty cup (see FIG. 4). […] The position of the dummy mouse (left or right compartment) remained the same for each subject as during the novelty test the day before, thereby counterbalancing the position of the stranger mouse across subjects. NIH Swiss stranger mice were similar in mass and appearance to the dummy PVC mice, and were housed separately from the experimental subjects (C57 and BTBR mice) in the colony facility. The first time the experimental subjects ever encountered the stranger mice was when they entered the compartment where they were contained. During this session, mice were weighed, administered the same injection as the day before, and returned to their home cage for a 30 min pretreatment period. Mice were then introduced into the T-junction and allowed to explore both preference compartments for 15 minutes. Sociability tests always occurred on Wednesdays or Thursdays to prevent any weekend testing.

DAT = DAT (Homo sapiens, UniProt Q01959); assay: QSAR model predicted IC50, DAT; settings: ratio = 1/DAT IC50:1/SERT IC50, from predicted IC50
DAT, sequence (Q01959 whole entry, species assumed): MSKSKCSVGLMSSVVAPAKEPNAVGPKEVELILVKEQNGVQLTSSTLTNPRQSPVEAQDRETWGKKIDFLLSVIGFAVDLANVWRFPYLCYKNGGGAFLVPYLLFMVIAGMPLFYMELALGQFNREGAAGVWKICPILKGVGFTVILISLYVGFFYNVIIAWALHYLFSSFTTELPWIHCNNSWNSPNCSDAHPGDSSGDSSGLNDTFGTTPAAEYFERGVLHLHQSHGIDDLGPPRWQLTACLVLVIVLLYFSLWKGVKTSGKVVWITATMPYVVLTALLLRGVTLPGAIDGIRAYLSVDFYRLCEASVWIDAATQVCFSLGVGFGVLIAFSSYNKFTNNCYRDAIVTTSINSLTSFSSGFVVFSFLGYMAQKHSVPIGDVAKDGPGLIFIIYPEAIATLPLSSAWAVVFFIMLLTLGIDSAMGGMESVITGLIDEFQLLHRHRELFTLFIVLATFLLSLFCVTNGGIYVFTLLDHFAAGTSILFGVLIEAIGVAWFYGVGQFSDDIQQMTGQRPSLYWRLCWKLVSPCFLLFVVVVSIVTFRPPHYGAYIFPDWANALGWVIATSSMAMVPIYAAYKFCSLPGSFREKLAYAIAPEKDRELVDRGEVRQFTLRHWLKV
Procedure: In silico studies (QSAR and docking) are useful tools to understand drug mechanisms, and they are relatively cheaper and faster than experiments. A QSAR model was created for each monoamine transporter. Additionally, the docking properties of phenethylamines were investigated.
QSAR: DAT, SERT and NET IC50 values were collected from the literature for 73 phenethylamines. Three different software's were used for descriptor calculations, and almost 2000 descriptors were calculated. Highly correlated descriptors were eliminated before multi-linear regression (MLR) analysis. All descriptors were merged with experimental inhibition values in QSARiNS software. The multi-Criteria Decision-Making tool of QSARiNS was used to pick the best model.
The predicted IC^50 (mM) values of the test molecules generated based on the QSAR developed as described above are presented in Table 4.

C57 and BTBR mice [3] = assay: Radiotelemetry of home cage locomotor activity; type: in vivo, mouse; settings: for locomotor stimulant effects: IP, C57 and BTBR mice
Procedure: The radiotelemetry assay was conducted in adult male C57 and BTBR mice (n=6 per group) in a dedicated testing room where ambient light, sound, and human contact were tightly controlled.
Prior to surgical implantation of radiotelemetry probes, mice received 3 mg/kg meloxicam (IP), and anesthesia was induced with 4% inhaled isoflurane and maintained with 1-3% isoflurane (as needed) throughout the procedure at a flow rate of 1.5 litres/minute. The abdominal area of each animal was treated with depilatory cream, then sanitized with 3 alternating scrubs with iodine and alcohol. A rostral-caudal cut approximately 1.5 cm in length was made with sterile skin scissors, providing access to the intraperitoneal cavity. A cylindrical glass-encapsulated radiotelemetry probe (model ER-4000 E-Mitter, Mini Mitter, Bend, OR, USA) was then inserted. These probes measure 15.5 mm×6.5 mm and weigh approximately 1 gram. Incisions were closed (skin layer and muscle layer separately) using reverse cutting 5-0 Vicryl absorbable sutures for the muscle layer and 5-0 nylon suture material for the skin layer. Surgeries were carried out at least 7 days before initiation of experimental conditions, allowing time for incisions to heal and for animals to recover normal body weights. Following surgery, all implanted mice were individually housed in Plexiglas cages within the telemetry room for the duration of all experiments. Implanted transmitters produce activity- and temperature-modulated signals which are sent to a receiver (model ER-4000 Receiver, Mini Mitter Co., Inc.) underneath each cage. Following use, telemetry probes were removed from carcasses, wiped with alcohol swabs, and stored in the disinfectant solution until re-use.
At least 7 days after surgical implantation of radiotelemetry probes, mice in their individual home cages were placed atop a telemetry energizer/receiver, which powers probes and transmits their data to an interfaced computer. […]

| Compound | cardiovascular effects (systolic, diastolic, mean arterial pressure) (C57 and BTBR mice [1]; 10 mg/kg and 30 mg/kg IP, C57 and BTBR mice) | toxicity (blood pressure) relative to racemic MDMA (C57 and BTBR mice [1]) | blood pressure rise relative to racemic MDMA and S-methamphetamine (C57 and BTBR mice [1]; both strains) | sociability (time spent with stranger mouse) (C57 and BTBR mice [2]; BTBR mice) | sociability (time spent with stranger mouse) (C57 and BTBR mice [2]; C57 mice) | DAT/SERT (calculated) (DAT) | locomotor effect (C57 and BTBR mice [3]; 56 mg/kg i.p., BTBR mice, significantly different from saline) | locomotor stimulant effects (C57 and BTBR mice [3]; doses as high as 30 mg/kg) | systolic and diastolic blood pressure (C57 and BTBR mice [1]; 10 mg/kg i.p.) | locomotor stimulant effects (C57 and BTBR mice [3]; any dose tested) |
| --- | --- | --- | --- | --- | --- | --- | --- | --- | --- | --- |
| c1cc2c(cc1C[C@H]1CCCN1)OCO2 [(R)-I, (R)-2-[(2H-1,3-benzodioxol-5-yl)methyl]pyrrolidine] | lower impact on cardiovascular effects than (S)-I | significantly less toxic | significantly lower | minor increase in the sociability response | no impact | 0.022 | locomotor effect stronger than C57 mice at the same dose | did not have significant locomotor stimulant effects | – | – |
| c1cc2c(cc1C[C@@H]1CCCN1)OCO2 [(S)-I, (S)-2-[(2H-1,3-benzodioxol-5-yl)methyl]pyrrolidine] | – | significantly less toxic | – | strong response in sociability | slight increase in time spent with the stranger mouse | 0.043 | – | – | higher systolic and diastolic blood pressure than (R)-I | neither strain exhibited locomotor stimulant effects |
